The source of these data is patent US20060135571A1, “Imidazo(2,1-b)-1,3,4-thiadiazole sulfoxides and sulfones” (priority 2003, published 2006).

Each structure is given as a SMILES string.

Data set [1] concerns SCG neurons. Nature of the data set: In vitro protection of SCG neurons from Taxol killing. In kind it is cell-based, Sprague Dawley rats. Particulars: Rattus norvegicus, Neuron, read-out: IC50, rescue from Taxol killing of SCG neurons. On the procedure:
Taxol™ is regularly used in breast cancer chemotherapy. In cancer cells Taxol™ binds to the cyto-skeletal protein tubulin, thereby inhibiting normal microtubular assembly and inducing cellular apoptosis. Despite its potency as an anti-tumour agent, Taxol™ is also toxic to neurons, inducing dose limiting peripheral neuropathies. The addition of Taxol™ (100 ng/mL) to cultured SCG neurons induces the degradation or loss of upwards of 80% of the neurons. The addition of selected compounds of Formula I to the cellular media, concurrently with Taxol™, protects upwards of 100% of the neurons, at drug concentrations ranging from 1 to 50 μM (see Example 74).
SCG neurons were isolated from day 1 neonatal Sprague Dawley rats, plated at a cell density of 10,000 cells/well, and incubated in Biowhittaker Utraculture containing 1% Penstrep, 1% L-glutamine, 0.7% ARAC, 3% rat serum, and NGF (50 ng/mL, Calomone Labs) at 37° C., under a 5% CO2 atmosphere. After 5 days the cells were treated with compound and Taxol™ (50 ng/mL). Viability was assessed 48 hours later using MTS (Promega) staining.

The test system of data set [2] is SCG neurons. The experiment in a line: In vitro protection of SCG neurons from cisplatin killing. Particulars: Rattus norvegicus, Neuron; cisplatin 3 μg/mL, 48 hours, MTS viability; read-out: IC50, protection of SCG neurons against cisplatin killing. In kind it is cell-based, Sprague Dawley rats. As for the experimental part: The mechanism of Cisplatin's anti-cancer action is not fully understood, but is believed to involve DNA binding and cleavage. Cisplatin is highly toxic to neurons. The addition of cisplatin (3 μg/mL) to cultured SCG neurons induces apoptosis of upwards of 80% of the neurons. The addition of selected compounds of Formula I to the cellular media, concurrently with cisplatin, protects upwards of 100% of the neurons, at drug concentrations ranging from 1 to 50 μM (see Example 75).
SCG neurons were isolated from day 1 neonatal Sprague Dawley rats, plated at a cell density of 10,000 cells/well, and incubated in Biowhittaker Utraculture containing 1% Penstrep, 1% L-glutamine, 0.7% ARAC, 3% rat serum, and NGF (50 ng/mL, Calomone Labs) at 37° C., under a 5% CO2 atmosphere. After 5 days the cells were treated with compound and cisplatin (3 μg/mL). Viability was assessed 48 hours later using MTS (Promega) staining.

In data set [3] the test system is SCG neurons. The experiment in a line: Protection of SCG neurons from anti-NGF killing. Particulars: Rattus norvegicus, Neuron; anti-NGF antibody, 48 hours, Alamar Blue viability; read-out: IC(50), rescue from anti-NGF killing of SCG neurons. The class given is cell-based, Sprague Dawley rats. On the procedure:
Neurotrophins are critical to the growth, development, and survival of small fiber neurons of the PNS. […] In a typical experiment SCG neurons are cultured in the presence of NGF, which induces survival and neurite out-growth. After 5 days the NGF is removed by either the addition of anti-NGF polyclonal antibody (Sigma) or by repeated washings (4 times) with NGF free media, resulting in the apoptosis of up to 90% of the neurons after 48 hours, as measured by MTS staining. The addition of selected compounds of Formula I to the final cellular media provides upwards of 100% protection, at drug concentrations ranging from 1 to 50 μM (see Example 73).
SCG neurons were isolated from day 1 neonatal Sprague Dawley rats, plated at a cell density of 5,000 cells/well, and incubated in Biowhittaker Utraculture containing 1% Penstrep, 1% L-glutamine, 0.7% ARAC, 3% rat serum, and NGF (50 ng/mL, Calomone Labs), at 37° C., under a 5% CO2 atmosphere. After 4 days the cells were treated with anti-NGF antibody (Sigma). At this time compound was added and the cells were maintained serum and NGF free for 48 hours, at which time viability was assessed using Alamar Blue (Medicorp) staining.
For orientation: The colour change of resazurin is a common sign of viable cells or microbes.

Another data set has as its system SK-N-AS. Nature of the data set: Sulforhodamine B assay, killing of SK-N-AS neuroblastoma cells. In kind it is cell-based, Human. On the procedure:
(§1) Compound represented by Formula I were tested for anti-cancer properties using the sulforhodamine B assay. Human neuroblastomas SK-N-AS, and SH-SY5Y were plated in 96 well plates at a density of 15 000 cells/well. Daoy medulloblastoma cells were plated at a density of 2000 cells/well. Cells were cultured in RPMI supplemented with 5% fetal bovine serum and test compounds. After 72 hours of culture cell growth was assessed by sulforhodamine B. Cellular protein was precipitated and fixed with trichloroacetic acid and detected by incubation with sulforhodamine B. Bound dye solubilized in trizma base and was assessed by absorbance at 515 nm. Compound 28 caused either cell death or inhibited cellular proliferation of the SK-N-AS and SH-SY5Y neuroblastoma and daoy medulloblastoma cells with ED50s of 7, 5, and 2 µM, respectively.
(§2) Human neuroblastomas SK-N-AS, and SH-SY5Y were plated in 96 well plates at a density of 15 000 cells/well. Daoy medulloblastoma cells were plated at a density of 2000 cells/well. Cells were cultured in RPMI supplemented with 5% fetal bovine serum and test compound at various concentrations. After 72 hours of culture cell growth was assessed by sulforhodamine B. Cellular protein was precipitated and fixed with trichloroacetic acid and detected by incubation with sulforhodamine B. Bound dye solublized in trizma base and was assessed by absorbance at 515 nm.
For orientation: Sulforhodamine B stains cellular protein and so reports cell mass.

Data set [4] has as its system Daoy medulloblastoma cells. Nature of the data set: Sulforhodamine B assay, killing of Daoy medulloblastoma cells. The class given is cell-based. As for the experimental part:
as §1, §2

In a further data set the test system is SH-SY5Y. The experiment in a line: Sulforhodamine B assay, killing of SH-SY5Y neuroblastoma cells. The class given is cell-based, Human. As for the experimental part: as §1, §2
A short description of data set [5]: Aqueous solubility in saline. The class given is physicochemical. The note with it: saline or isotonic, acid salt. As for the experimental part:
Select compounds bearing a basic moiety display good aqueous solubility as the corresponding acid salt. For example, compound 56.2HCl is soluble at >100 mg/mL in saline, allowing for the ready application of these compounds via multiple routes of administration either oral or percutaneous.

[6] abbreviates: Taxol 50 ng/mL, 48 hours, MTS viability.

The term solubility denotes how much of the substance goes into solution per volume.

Take `[O-][S+](Cc1ccccc1)c1nn2cc(-c3c(F)c(F)c(F)c(F)c3F)nc2s1` (stereo not drawn) [Compound 1]: in the data set on SCG neurons [1] (setting [6]), the IC50 was 1000 nM.
Turning to `O=S(=O)(Cc1ccccc1)c1nn2cc(-c3c(F)c(F)c(F)c(F)c3F)nc2s1` [Compound 2], the IC50 with SCG neurons [2] was found to be 800 nM.
Consider `[O-][S+](CCc1ccccc1)c1nn2cc(-c3ccc(Oc4ccc(Cl)cc4)cc3)nc2s1` (stereo not drawn) [Compound 3], for which the IC50 in the data set on SCG neurons [1] (setting [6]) is 7000 nM; with SCG neurons [3], 8000 nM.
For `O=S(=O)(CCc1ccccc1)c1nn2cc(-c3ccc(Oc4ccc(Cl)cc4)cc3)nc2s1` [Compound 4], in that order: 1000 nM and 6000 nM.
On to `[O-][S+](Cc1ccccn1)c1nn2cc(-c3ccccc3)nc2s1` (stereo not drawn) [Compound 5], for which the IC50 with SCG neurons [1] (setting [6]) was found to be 1000 nM.
On the same count and under the same terms, next, `O=S(=O)(Cc1ccccn1)c1nn2cc(-c3ccccc3)nc2s1` [Compound 6]: 1500 nM.
On the same count and under the same terms, next, `O=S(=O)(Cc1cccnc1)c1nn2cc(-c3ccccc3)nc2s1` [Compound 8]: 800 nM; `[O-][S+](Cc1ccncc1)c1nn2cc(-c3ccccc3)nc2s1` (stereo not drawn) [Compound 9]: 800 nM; `O=S(=O)(Cc1ccncc1)c1nn2cc(-c3ccccc3)nc2s1` [Compound 10]: 800 nM.
On to `[O-][S+](Cc1ccccn1)c1nn2cc(-c3cccc(F)c3)nc2s1` (stereo not drawn) [Compound 13], for which, in the data set with SCG neurons [1] (setting [6]), the IC50 was 1000 nM.
Still for that read-out and setting: next, `O=S(=O)(Cc1ccccn1)c1nn2cc(-c3cccc(F)c3)nc2s1` [Compound 14]: 3000 nM.
Still for that read-out and setting: for `[O-][S+](Cc1ccccn1)c1nn2cc(-c3ccc(Oc4ccc(Cl)cc4)cc3)nc2s1` (stereo not drawn) [Compound 15] the value was 1000 nM.
On to `O=S(=O)(Cc1ccccn1)c1nn2cc(-c3ccc(Oc4ccc(Cl)cc4)cc3)nc2s1` [Compound 16], for which the IC50 in the data set on SCG neurons [1] (setting [6]) and with SCG neurons [2] was 500 nM in each case.
Regarding `[O-][S+](Cc1ccncc1)c1nn2cc(-c3ccc(Oc4ccc(Cl)cc4)cc3)nc2s1` (stereo not drawn) [Compound 17], the IC50 in the data set on SCG neurons [1] (setting [6]) is 2000 nM; with SCG neurons [2], 300 nM.
In the case of `O=S(=O)(Cc1ccncc1)c1nn2cc(-c3ccc(Oc4ccc(Cl)cc4)cc3)nc2s1` [Compound 18], the IC50 in the data set on SCG neurons [2] stood at 300 nM.
For the molecule `[O-][S+](CCc1ccccn1)c1nn2cc(-c3ccc(F)cc3)nc2s1` (stereo not drawn) [Compound 19], the IC50 was 6000 nM in the data set on SCG neurons [1] (setting [6]) and 800 nM in the data set on SCG neurons [2].
With `[O-][S+](CCN1CCOCC1)c1nn2cc(-c3ccc(F)cc3)nc2s1` (stereo not drawn) [Compound 28], the “ED50, cell death or inhibited cellular proliferation” value with SK-N-AS (72 hours, sulforhodamine B) is 7000 nM; in data set [4] (72 hours, sulforhodamine B), 2000 nM; in the data set on SH-SY5Y (72 hours, sulforhodamine B), 5 µM. The “concentration at which the cell line is potently killed in vitro (as low as)” value in the data set with SK-N-AS (FIG. 1, sulforhodamine B) was not below 5 µM; in data set [4] (FIG. 1, sulforhodamine B), not below 5 µM; with SH-SY5Y (FIG. 1, sulforhodamine B), not below 5 µM. Also, the IC50 stood at 5000 nM with SCG neurons [1] (setting [6]) and 1000 nM with SCG neurons [2].
`CN(C)CC[S+]([O-])c1nn2cc(-c3cccc(F)c3)nc2s1` (stereo not drawn) [Compound 29]: the figures for the IC50 in the data set on SCG neurons [1] (setting [6]) and in the data set with SCG neurons [2] were 1000 nM and 3000 nM, respectively.
In the case of `[O-][S+](Cc1ccncc1)c1nn2cc(-c3ccc(N4CCOCC4)cc3)nc2s1` (stereo not drawn) [Compound 30], the IC50 in the data set on SCG neurons [1] (setting [6]) was more than 10000 nM.
Still for that read-out and setting: for `CC[S+]([O-])c1nn2cc(-c3ccc(OCCO)cc3)nc2s1` (stereo not drawn) [Compound 32] the value was 5000 nM; for `CCS(=O)(=O)c1nn2cc(-c3ccc(OCCO)cc3)nc2s1` [Compound 33], 1000 nM.
On to `CC(C)(C)OC(=O)NCC[S+]([O-])c1nn2cc(-c3ccccn3)nc2s1` (stereo not drawn) [Compound 35], for which the IC50 with SCG neurons [1] (setting [6]) came to 2000 nM.
On the same count and under the same terms, for `CC[S+]([O-])c1nn2cc(-c3ccccn3)nc2s1` (stereo not drawn) [Compound 37] the value was 2000 nM; for `CC[S+]([O-])c1nn2cc(-c3cnccn3)nc2s1` (stereo not drawn) [Compound 40], 3000 nM.
For `NCCS(=O)(=O)c1nn2cc(-c3ccccc3)nc2s1` [Compound 44], the IC50 in the data set on SCG neurons [1] (setting [6]) and in the data set with SCG neurons [2] was 2000 nM each time.
`CS(=O)(=O)NCCS(=O)(=O)c1nn2cc(-c3ccccc3)nc2s1` [Compound 45]: the IC50 in the data set with SCG neurons [2] was 1000 nM.
Regarding `CN(C)CC(=O)NCCS(=O)(=O)c1nn2cc(-c3ccc(F)cc3)nc2s1` [Compound 48], the IC50 in the data set on SCG neurons [1] (setting [6]) came out at 800 nM.
Still for that read-out and setting: for `CC(=O)Nc1ccc(S(=O)(=O)c2nn3cc(-c4ccccn4)nc3s2)cc1` [Compound 52] the value was 1000 nM; for `CN1CCN(CC[S+]([O-])c2nn3cc(-c4ccccc4)nc3s2)CC1` (stereo not drawn) [Compound 54], 3000 nM.
As to `CN1CCCN(CC[S+]([O-])c2nn3cc(-c4ccccc4)nc3s2)CC1` (stereo not drawn) [Compound 56.2HCl], in data set [5], the solubility was more than 100 mg/mL.
On to `CN1CCCN(CC[S+]([O-])c2nn3cc(-c4ccccc4)nc3s2)CC1` (stereo not drawn) [Compound 56], for which the IC50 with SCG neurons [1] (setting [6]) is 1000 nM.
Consider `[O-][S+](CCN1CCNCC1)c1nn2cc(-c3ccccc3)nc2s1` (stereo not drawn) [Compound 58], for which the IC50 in the data set on SCG neurons [1] (setting [6]) worked out at 1000 nM.
Regarding `CC(=O)N1CCN(CC[S+]([O-])c2nn3cc(-c4ccccc4)nc3s2)CC1` (stereo not drawn) [Compound 60], the IC50 in the data set on SCG neurons [1] (setting [6]) came to 1000 nM.
Still for that read-out and setting: next, `[O-][S+](CCN1CCCCC1)c1nn2cc(-c3ccccc3)nc2s1` (stereo not drawn) [Compound 61]: 10000 nM; `[O-][S+](CCN1CCC(O)CC1)c1nn2cc(-c3ccccc3)nc2s1` (stereo not drawn) [Compound 62]: 10000 nM.
Consider `[O-][S+](CCN1CCC(Cc2ccccc2)CC1)c1nn2cc(-c3ccccc3)nc2s1` (stereo not drawn) [Compound 63], for which the IC50 with SCG neurons [1] (48 h) is 10000 nM.
In the case of `CC(=O)N1CCN(CC[S+]([O-])c2nn3c(-c4ccccc4)cnc3s2)CC1` (stereo not drawn) [Compound 65], the IC50 in the data set with SCG neurons [1] (setting [6]) came to 10000 nM.
As for `[O-][S+](CCN1CCN(Cc2ccccc2)CC1)c1nn2c(-c3ccccc3)cnc2s1` (stereo not drawn) [Compound 66], the IC50 with SCG neurons [1] (setting [6]) was 10000 nM.
As to `CN1CCN(CCC[S+]([O-])c2nn3cc(-c4ccccc4)nc3s2)CC1` (stereo not drawn) [Compound 69], the IC50 with SCG neurons [1] (setting [6]) and in the data set on SCG neurons [2] was 1000 nM in each case.
Take `CN1CCN(CC[S+]([O-])c2nn3cc(-c4ccc(F)cc4)nc3s2)CC1` (stereo not drawn) [Compound 70]: the IC50 with SCG neurons [1] (setting [6]) and in the data set with SCG neurons [2] was 1000 nM throughout.
Regarding `CN1CCN(CC[S+]([O-])c2nn3cc(-c4ccc5c(c4)OCCCO5)nc3s2)CC1` (stereo not drawn) [Compound 71], the IC50 with SCG neurons [1] (setting [6]) stood at 3000 nM.
